This note sets out measurements from US20060252807A1, “Novel ortho-terphenyl inhibitors of p38 kinase and methods of treating inflammatory disorders” (Kalypsys, Inc., priority 2005, published 2006).

T1 sequence (Q16539 whole entry): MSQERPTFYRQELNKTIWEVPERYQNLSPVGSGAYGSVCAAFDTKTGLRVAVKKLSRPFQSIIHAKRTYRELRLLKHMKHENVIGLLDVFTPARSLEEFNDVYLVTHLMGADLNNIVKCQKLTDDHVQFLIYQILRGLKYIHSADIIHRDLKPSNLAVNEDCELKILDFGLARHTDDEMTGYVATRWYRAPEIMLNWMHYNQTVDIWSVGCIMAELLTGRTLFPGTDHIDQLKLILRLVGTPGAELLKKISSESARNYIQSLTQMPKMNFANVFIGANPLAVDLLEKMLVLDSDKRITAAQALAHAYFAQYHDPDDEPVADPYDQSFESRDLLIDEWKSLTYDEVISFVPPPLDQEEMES

This experiment has as its target T1, active p38 alpha enzyme (Upstate Biotechnology) (Homo sapiens, UniProt Q16539).
T1 construct: purchased Upstate Biotechnology
As to the kind of experiment: p38α biochemical assay (ATP turnover, luminescent detection, Cambrex PKlight). As to conditions: p38α kinase; Table 1 Biological Activity. In outline: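 Measures total ATP turnover by luminescence after human p38α phosphorylates full MapkapK2 protein. Final ATP is 1.4 uM, and incubation runs 2 hours at 30C. The buffer includes 100 mM MgCl2, 4 mM CaCl2 and 1 mg/ml BSA.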
Regarding `CC(=O)Oc1cccc(C(=O)N2CCC(c3[nH]nc(-c4ccc(F)cc4)c3-c3nc(C(=O)NC(C)C)cs3)CC2)c1` [Example 929], the IC50 is > 1 µM.

Turning to `CC(=O)Oc1ccccc1C(=O)N1CCC(c2[nH]nc(-c3ccc(F)cc3)c2-c2nc(C(=O)NC(C)C)cs2)CC1` [Example 930], the IC50 was > 1 µM.

In the case of `CC(C)NC(=O)c1csc(-c2c(-c3ccc(F)cc3)n[nH]c2C2CCN(C(=O)Cc3ccc4c(c3)OCO4)CC2)n1` [Example 931], the IC50 is > 1 µM.

As to `CCCOc1ccc(C(=O)N2CCC(c3[nH]nc(-c4ccc(F)cc4)c3-c3nc(C(=O)NC(C)C)cs3)CC2)cc1` [Example 932], the IC50 is > 1 µM.

On to `CC(C)NC(=O)c1csc(-c2c(-c3ccc(F)cc3)n[nH]c2C2CCN(C(=O)c3ccc(OC(C)C)cc3)CC2)n1` [Example 933], for which the IC50 is > 1 µM.

For `Cc1cccc(C(=O)N2CCC(c3[nH]nc(-c4ccc(F)cc4)c3-c3nc(C(=O)NC(C)C)cs3)CC2)c1[N+](=O)[O-]` [Example 935], the IC50 was > 1 µM.

Take `Cc1ccc([N+](=O)[O-])c(C(=O)N2CCC(c3[nH]nc(-c4ccc(F)cc4)c3-c3nc(C(=O)NC(C)C)cs3)CC2)c1` [Example 936]: the IC50 was > 1 µM.

As to `COc1ccc(OC)c(C(=O)N2CCC(c3[nH]nc(-c4ccc(F)cc4)c3-c3nc(C(=O)NC(C)C)cs3)CC2)c1` [Example 938], the IC50 was > 1 µM.

Consider `COc1ccc(C(=O)N2CCC(c3[nH]nc(-c4ccc(F)cc4)c3-c3nc(C(=O)NC(C)C)cs3)CC2)c(OC)c1` [Example 939], for which the IC50 is > 1 µM.

On to `COc1cccc(OC)c1C(=O)N1CCC(c2[nH]nc(-c3ccc(F)cc3)c2-c2nc(C(=O)NC(C)C)cs2)CC1` [Example 940], for which the half-maximal inhibitory concentration (IC50) was > 1 µM.

Regarding `COc1cc(OC)cc(C(=O)N2CCC(c3[nH]nc(-c4ccc(F)cc4)c3-c3nc(C(=O)NC(C)C)cs3)CC2)c1` [Example 941], the IC50 was > 1 µM.

In the case of `COc1cccc(C(=O)N2CCC(c3[nH]nc(-c4ccc(F)cc4)c3-c3nc(C(=O)NC(C)C)cs3)CC2)c1OC` [Example 942], the IC50 is > 1 µM.

For the compound `Cc1ccc(SCC(=O)N2CCC(c3[nH]nc(-c4ccc(F)cc4)c3-c3nc(C(=O)NC(C)C)cs3)CC2)cc1` [Example 943], the IC50 is > 1 µM.

Consider `CC(C)NC(=O)c1csc(-c2c(-c3ccc(F)cc3)n[nH]c2C2CCN(C(=O)/C=C/c3ccc(Cl)cc3)CC2)n1` [Example 944], for which the concentration for half-maximal inhibition (IC50) is > 1 µM.

With `CC(C)NC(=O)c1csc(-c2c(-c3ccc(F)cc3)n[nH]c2C2CCN(C(=O)/C=C/c3ccccc3Cl)CC2)n1` [Example 945], the IC50 is > 1 µM.

Consider `CC(C)NC(=O)c1csc(-c2c(-c3ccc(F)cc3)n[nH]c2C2CCN(C(=O)c3ccc([N+](=O)[O-])c(O)c3)CC2)n1` [Example 946], for which the IC50 was > 1 µM.

On to `CC(C)NC(=O)c1csc(-c2c(-c3ccc(F)cc3)n[nH]c2C2CCN(C(=O)c3cc(O)ccc3[N+](=O)[O-])CC2)n1` [Example 947], for which the IC50 is ≤ 1 µM.

For the compound `CC(C)NC(=O)c1csc(-c2c(-c3ccc(F)cc3)n[nH]c2C2CCN(C(=O)c3cc([N+](=O)[O-])ccc3O)CC2)n1` [Example 948], the IC50 is > 1 µM.

As to `CC(C)NC(=O)c1csc(-c2c(-c3ccc(F)cc3)n[nH]c2C2CCN(C(=O)c3cc([N+](=O)[O-])ccc3F)CC2)n1` [Example 949], the IC50 was > 1 µM.

In the case of `CC(C)NC(=O)c1csc(-c2c(-c3ccc(F)cc3)n[nH]c2C2CCN(C(=O)c3cc(F)ccc3[N+](=O)[O-])CC2)n1` [Example 950], the IC50 was > 1 µM.

`CC(C)NC(=O)c1csc(-c2c(-c3ccc(F)cc3)n[nH]c2C2CCN(C(=O)c3ccc(F)c([N+](=O)[O-])c3)CC2)n1` [Example 951]: the IC50 was > 1 µM.

As to `COc1ccc(Cl)cc1C(=O)N1CCC(c2[nH]nc(-c3ccc(F)cc3)c2-c2nc(C(=O)NC(C)C)cs2)CC1` [Example 952], the IC50 is > 1 µM.

For the compound `COc1cc(Cl)ccc1C(=O)N1CCC(c2[nH]nc(-c3ccc(F)cc3)c2-c2nc(C(=O)NC(C)C)cs2)CC1` [Example 953], the IC50 was > 1 µM.

In the case of `CC(C)NC(=O)c1csc(-c2c(-c3ccc(F)cc3)n[nH]c2C2CCN(C(=O)Cc3ccc(O)c(Cl)c3)CC2)n1` [Example 954], the IC50 is > 1 µM.

As for `COc1cc(C(=O)N2CCC(c3[nH]nc(-c4ccc(F)cc4)c3-c3nc(C(=O)NC(C)C)cs3)CC2)cc(Cl)n1` [Example 955], the IC50 was > 1 µM.

Regarding `CC(C)NC(=O)c1csc(-c2c(-c3ccc(F)cc3)n[nH]c2C2CCN(C(=O)c3ccc4cc(O)ccc4c3)CC2)n1` [Example 956], the IC50 is > 1 µM.

In the case of `CC(C)NC(=O)c1csc(-c2c(-c3ccc(F)cc3)n[nH]c2C2CCN(C(=O)c3c(O)ccc4ccccc34)CC2)n1` [Example 957], the IC50 is > 1 µM.

In the case of `CC(C)NC(=O)c1csc(-c2c(-c3ccc(F)cc3)n[nH]c2C2CCN(C(=O)c3cc4ccccc4cc3O)CC2)n1` [Example 958], the IC50 was > 1 µM.

`CC(C)NC(=O)c1csc(-c2c(-c3ccc(F)cc3)n[nH]c2C2CCN(C(=O)c3ccc4ccccc4c3O)CC2)n1` [Example 959]: the IC50 was > 1 µM.

In the case of `CC(C)NC(=O)c1csc(-c2c(-c3ccc(F)cc3)n[nH]c2C2CCN(C(=O)c3ccc4cccc(O)c4n3)CC2)n1` [Example 960], the IC50 is > 1 µM.

Regarding `CC(C)NC(=O)c1csc(-c2c(-c3ccc(F)cc3)n[nH]c2C2CCN(C(=O)C(C)NC(=O)OC(C)(C)C)CC2)n1` (stereo not drawn) [Example 961], the IC50 was > 1 µM.

Take `CC(C)NC(=O)c1csc(-c2c(-c3ccc(F)cc3)n[nH]c2C2CCN(C(=O)C(C)NC(=O)OC(C)(C)C)CC2)n1` (stereo not drawn) [Example 962]: the IC50 was > 1 µM.

Regarding `CC(C)NC(=O)c1csc(-c2c(-c3ccc(F)cc3)n[nH]c2C2CCN(C(=O)c3ccccc3C(F)(F)F)CC2)n1` [Example 963], the IC50 is > 1 µM.

With `CC(C)NC(=O)c1csc(-c2c(-c3ccc(F)cc3)n[nH]c2C2CCN(C(=O)CCc3nc4ccccc4[nH]3)CC2)n1` [Example 964], the IC50 is ≤ 1 µM.

Regarding `CC(C)NC(=O)c1csc(-c2c(-c3ccc(F)cc3)n[nH]c2C2CCN(C(=O)c3cccc(Cl)c3Cl)CC2)n1` [Example 965], the IC50 is > 1 µM.

On to `CC(C)NC(=O)c1csc(-c2c(-c3ccc(F)cc3)n[nH]c2C2CCN(C(=O)c3ccc(Cl)cc3Cl)CC2)n1` [Example 966], for which the IC50 is > 1 µM.

As for `CC(C)NC(=O)c1csc(-c2c(-c3ccc(F)cc3)n[nH]c2C2CCN(C(=O)c3cc(Cl)ccc3Cl)CC2)n1` [Example 967], the IC50 is > 1 µM.

Turning to `CC(C)NC(=O)c1csc(-c2c(-c3ccc(F)cc3)n[nH]c2C2CCN(C(=O)c3cc(F)c(F)c(O)c3F)CC2)n1` [Example 968], the IC50 was > 1 µM.

For `CC(C)NC(=O)c1csc(-c2c(-c3ccc(F)cc3)n[nH]c2C2CCN(C(=O)/C=C/c3ccc4c(c3)OCO4)CC2)n1` [Example 969], the IC50 was > 1 µM.

For `Cc1ccc(C(=O)CCC(=O)N2CCC(c3[nH]nc(-c4ccc(F)cc4)c3-c3nc(C(=O)NC(C)C)cs3)CC2)cc1` [Example 970], the half-inhibitory concentration (IC50) was > 1 µM.

Regarding `CCCCCc1ccc(C(=O)N2CCC(c3[nH]nc(-c4ccc(F)cc4)c3-c3nc(C(=O)NC(C)C)cs3)CC2)cc1` [Example 971], the IC50 is > 1 µM.

For `CC(C)NC(=O)c1csc(-c2c(-c3ccc(F)cc3)n[nH]c2C2CCN(C(=O)c3cc(F)c(F)cc3Cl)CC2)n1` [Example 972], the IC50 is > 1 µM.

Turning to `CC(C)NC(=O)c1csc(-c2c(-c3ccc(F)cc3)n[nH]c2C2CCN(C(=O)c3cc(F)c(Cl)cc3F)CC2)n1` [Example 973], the IC50 was > 1 µM.

As for `CCN(CC)c1ccc(C(=O)N2CCC(c3[nH]nc(-c4ccc(F)cc4)c3-c3nc(C(=O)NC(C)C)cs3)CC2)cc1` [Example 974], the IC50 was > 1 µM.

On to `COc1cc(/C=C/C(=O)N2CCC(c3[nH]nc(-c4ccc(F)cc4)c3-c3nc(C(=O)NC(C)C)cs3)CC2)ccc1O` [Example 975], for which the IC50 is > 1 µM.

Take `COc1ccc(/C=C/C(=O)N2CCC(c3[nH]nc(-c4ccc(F)cc4)c3-c3nc(C(=O)NC(C)C)cs3)CC2)cc1O` [Example 976]: the IC50 is > 1 µM.

Regarding `CCCCOc1ccc(C(=O)N2CCC(c3[nH]nc(-c4ccc(F)cc4)c3-c3nc(C(=O)NC(C)C)cs3)CC2)cc1` [Example 977], the IC50 is ≤ 1 µM.

For the compound `CC(C)NC(=O)c1csc(-c2c(-c3ccc(F)cc3)n[nH]c2C2CCN(C(=O)c3cc4cc(Cl)ccc4o3)CC2)n1` [Example 978], the IC50 was > 1 µM.

As to `COc1ccc([N+](=O)[O-])c(C(=O)N2CCC(c3[nH]nc(-c4ccc(F)cc4)c3-c3nc(C(=O)NC(C)C)cs3)CC2)c1` [Example 979], the IC50 was > 1 µM.

For the compound `COc1cc(C(=O)N2CCC(c3[nH]nc(-c4ccc(F)cc4)c3-c3nc(C(=O)NC(C)C)cs3)CC2)cc(OC)c1O` [Example 980], the IC50 was > 1 µM.

Turning to `CC(C)NC(=O)c1csc(-c2c(-c3ccc(F)cc3)n[nH]c2C2CCN(C(=O)c3ccccc3-c3ccccc3)CC2)n1` [Example 981], the IC50 was > 1 µM.

Turning to `CC(C)NC(=O)c1csc(-c2c(-c3ccc(F)cc3)n[nH]c2C2CCN(C(=O)c3cccc(Br)c3)CC2)n1` [Example 982], the IC50 was > 1 µM.

Turning to `CC(C)NC(=O)c1csc(-c2c(-c3ccc(F)cc3)n[nH]c2C2CCN(C(=O)c3ccc(Br)cc3)CC2)n1` [Example 983], the IC50 was > 1 µM.

As to `CC(C)NC(=O)c1csc(-c2c(-c3ccc(F)cc3)n[nH]c2C2CCN(C(=O)c3cccc(Cl)c3[N+](=O)[O-])CC2)n1` [Example 984], the IC50 was > 1 µM.

With `CC(C)NC(=O)c1csc(-c2c(-c3ccc(F)cc3)n[nH]c2C2CCN(C(=O)c3cc([N+](=O)[O-])ccc3Cl)CC2)n1` [Example 985], the IC50 is > 1 µM.

Regarding `CC(C)NC(=O)c1csc(-c2c(-c3ccc(F)cc3)n[nH]c2C2CCN(C(=O)c3ccc([N+](=O)[O-])cc3Cl)CC2)n1` [Example 986], the IC50 was > 1 µM.

`CC(C)NC(=O)c1csc(-c2c(-c3ccc(F)cc3)n[nH]c2C2CCN(C(=O)C3=CC=CC(Cl)C=C3[N+](=O)[O-])CC2)n1` (stereo not drawn) [Example 987]: the IC50 was > 1 µM.

As a reminder, the IC50 is the concentration that inhibits the measured activity by half.
